pKi: −log10 of the molar value.
Biological target: Cyclin-dependent kinase 2/cyclin E1 (Homo sapiens, UniProt P24941)
Description: Inhibition of recombinant full length wild-type phosphorylated CDK2/Cyclin E1 (unknown origin) expressed in baculovirus expression system assessed as reduction in production of ADP using 5-FAM-QSPKKG-CONH2 peptide as substrate preincubated with enzyme for 15 mins followed by further incubation with ATP for 45 mins by fluorescence-based microfluidic mobility shift assay

SMILES	pKi
C[C@@]1(O)CCC[C@H]1n1c(=O)c(CC#N)cc2cnc(NC3CCN(S(C)(=O)=O)CC3)nc21	9.80
C[C@@H]1[C@H](O)CC[C@H]1n1c(=O)ccc2cnc(NC3CCN(S(C)(=O)=O)CC3)nc21	9.92
C[C@]1(O)CCC[C@@H]1n1c(=O)ccc2cnc(NC3CCN(S(=O)(=O)c4nccs4)CC3)nc21	8.14
CNS(=O)(=O)N1CCC(Nc2ncc3cc(Cl)c(=O)n([C@@H]4CCC[C@@]4(C)O)c3n2)CC1	9.70
CS(=O)(=O)N1CCC(Nc2ncc3cc(CC(N)=O)c(=O)n([C@@H]4CCC[C@@H](O)C4)c3n2)CC1	8.76

Next, values leading:

pKi	SMILES
9.60	C[C@@]1(O)CCC[C@H]1n1c(=O)ccc2cnc(NC3CCN(S(=O)(=O)CC4CC4)CC3)nc21
9.55	CNS(=O)(=O)N1CCC(Nc2ncc3ccc(=O)n([C@@H]4CCC[C@@]4(C)O)c3n2)CC1
10.00	C[C@@]1(O)CCC[C@H]1n1c(=O)ccc2cnc(NC3CCN(S(N)(=O)=O)CC3)nc21

Biological target: CDK6/cyclin D1 (Homo sapiens, UniProt Q00534)
Sequence (P24385 whole entry): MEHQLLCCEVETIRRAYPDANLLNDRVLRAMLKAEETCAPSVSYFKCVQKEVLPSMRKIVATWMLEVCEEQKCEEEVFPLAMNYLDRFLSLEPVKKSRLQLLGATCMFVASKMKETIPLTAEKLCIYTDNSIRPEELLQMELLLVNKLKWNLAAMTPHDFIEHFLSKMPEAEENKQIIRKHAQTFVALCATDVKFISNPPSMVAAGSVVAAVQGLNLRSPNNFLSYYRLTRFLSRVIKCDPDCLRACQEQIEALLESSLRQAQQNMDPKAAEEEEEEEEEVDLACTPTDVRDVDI
Sequence (Q00534 whole entry): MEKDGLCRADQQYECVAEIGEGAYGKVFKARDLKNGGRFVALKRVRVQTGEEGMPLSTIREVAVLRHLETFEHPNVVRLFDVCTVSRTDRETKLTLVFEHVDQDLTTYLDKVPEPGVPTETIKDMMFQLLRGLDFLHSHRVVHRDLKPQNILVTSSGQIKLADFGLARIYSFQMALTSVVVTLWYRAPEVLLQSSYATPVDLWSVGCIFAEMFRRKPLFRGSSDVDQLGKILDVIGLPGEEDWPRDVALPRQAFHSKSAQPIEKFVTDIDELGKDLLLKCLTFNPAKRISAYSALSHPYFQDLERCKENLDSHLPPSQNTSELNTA

pKi	SMILES
9.06	C[C@@]1(O)CCC[C@H]1n1c(=O)ccc2cnc(NC3CCN(S(=O)(=O)CC4CC4)CC3)nc21
